In patent US20040052922A1, “Nutritional and therapeutical preparations having antioxidant activity” (priority 2000, published 2004):

Tests used:
Format in all cases: in vivo, rat
[1] = Total cholesterol, HDL cholesterol and triglycerids plasma levels in rats on hypercaloric diet
Procedure: (§1) Rats received hypercaloric, hypertriglyceridemizing and hypercholesterolemizing diet. After twenty days of treatment, the effect of the compositions on the following parameters was evaluated: 4) total cholesterol and HDL cholesterol plasma levels; 5) total triglycerids plasma levels. 80 Male rats, each weighing 150-200 g, were used. The animals were subdivided into 8 groups of 10 animals each: […] 20% casein; 3.5% mixture of oligoelements and mineral salts; 0.1% mixture of vitamins; 0.2% choline ditartrate; 2% cellulose; cholesterol 0.5%; 0.25% sodium cholate; 58.44% saccharose; 10.0% lard and 4.9% olive oil. […] 3rd group A: animals were treated with a polycosanols mixture (octacosanol=50%) of rice wax (PLC), animals received for 20 days the same diet as the controls, except that 0.5 g of rice wax polycosanols replaced in part a similar amount of olive oil (olive oil used: 4.4%). […] 5th group: treated with 1-piperoylpiperidine (P); animals received for 20 days the same diet as the controls, except that 0.025 g of 1-piperoylpiperidine replaced a similar amount of olive oil (olive oil used: 4.875%).

[2] = Body weight of rats on hypercaloric diet
Procedure: as §1, with “2) body weight;” for “4) total cholesterol and HDL cholesterol plasma levels; 5) total triglycerids plasma levels.”

[3] = system: membrane of plasma platelets; assay: Membrane fluidity of plasma platelets (TMA-DPH fluorescent probe) in rats on hypercaloric, hyperlipidemizing diet; conditions: expressed as % compared with controls values at time 0; after 20 days of dietary treatment
Procedure: as §1, with “evaluated:” for “evaluated: 4) total cholesterol and HDL cholesterol plasma levels; 5) total triglycerids plasma levels.”, “4.875%). […] Membrane fluidity of erythrocyte ghosts and plasma platelets was measured using TMA-DPH as fluorescent probe, according to the method by […]. et al., 1999, Thromb. Hoemost., 82 pp. 149.” for “4.875%).”

[4] = system: lipoperoxides; assay: Lipoperoxides levels (malonyldialdehyde) in plasma, liver, brain and heart of rats on hypercaloric diet
Procedure: Rats received hypercaloric, hypertriglyceridemizing and hypercholesterolemizing diet. After twenty days of treatment, the effect of the compositions on the following parameters was evaluated: 1) lipoperoxides levels in plasma, liver, brain and heart; 80 Male rats, each weighing 150-200 g, were used. […] 20% casein; 3.5% mixture of oligoelements and mineral salts; 0.1% mixture of vitamins; 0.2% choline ditartrate; 2% cellulose; cholesterol 0.5%; 0.25% sodium cholate; 58.44% saccharose; 10.0% lard and 4.9% olive oil. […] Malonyldialdehyde was evaluated according to the procedure by K. Yagi et al., 1982, in “Lipid Peroxides in Biology and Medicine”, Academic Press, New York, pp. 324-340.

[5] = system: membrane of erythrocyte ghosts; assay: Membrane fluidity of erythrocyte ghosts (TMA-DPH fluorescent probe) in rats on hypercaloric, hyperlipidemizing diet; conditions: expressed as % compared with controls values at time 0; after 20 days of dietary treatment
Procedure: as §1, with “evaluated:” for “evaluated: 4) total cholesterol and HDL cholesterol plasma levels; 5) total triglycerids plasma levels.”, “4.875%). […] Membrane fluidity of erythrocyte ghosts and plasma platelets was measured using TMA-DPH as fluorescent probe, according to the method by […]. et al., 1999, Thromb. Hoemost., 82 pp. 149.” for “4.875%).”

[6] = after 20 days of diet treatment
[7] = in brackets, control after 20 day diet = 100%

## O=C(/C=C/C=C/c1ccc2c(c1)OCO2)N1CCCCC1 [P, 1-piperoylpiperidine]
[1]; [6]
  HDL cholesterol: 29.3 ± 1.5 mg/dL
  Total cholesterol: 125.2 ± 12.5 mg/dL
  total triglycerids: 81.9 ± 8.7 mg/dL
[1]; [7]
  Total cholesterol, percent change vs control rats after 20 day diet: −0.7%
  total triglycerids, percent change vs control rats after 20 day diet: −0.7%
[2]; [6]
  body weight: 223 ± 16 g
[2]; [7]
  body weight, percent change vs control rats after 20 day diet: −0.4%
[3]
  membrane fluidity (plasma platelets): 70%
[4]; brain, after 20 day dietary treatment
  MDA BRAIN: 107 ± 5 n mols of malonyldialdehyde (MDA) per gram of tissue
[4]; brain, vs control rats after 20 days of diet
  Percent change vs. controls (MDA BRAIN): −0.9%
[4]; heart, after 20 day dietary treatment
  MDA HEART: 44 ± 7 n mols of malonyldialdehyde (MDA) per gram of tissue
[4]; heart, vs control rats after 20 days of diet
  Percent change compared with controls (MDA HEART): −2.2%
[4]; liver, after 20 day dietary treatment
  MDA LIVER: 43.5 ± 7.8 n mols of malonyldialdehyde (MDA) per gram of tissue
[4]; liver, vs control rats after 20 days of diet
  Percent change vs. controls (MDA LIVER): −1.5%
[4]; plasma, after 20 day dietary treatment
  MDA PLASMA: 5.0 ± 0.3 n mols of malonyldialdehyde (M
[4]; plasma, vs control rats after 20 days of diet
  Percent change vs. controls (MDA PLASMA): −1.9%
[5]
  membrane fluidity (erythrocyte ghosts): 73%
